Measured values taken from patent publication US5958950A, “Benzimidazole compounds useful for the treatment of inflammatory disease, atherosclerosis, restenosis or inhibiting lipoxygenase” (Warner-Lambert Company, priority 1998, dated 1999).

biological target: T1, rabbit reticulocyte 15-LO (Oryctolagus cuniculus, UniProt P12530); experiment: 15-Lipoxygenase Assay: inhibition of 15-LO with linoleic acid as substrate, HPLC method of Auerbach et al.; assay type: biochemical; settings: HPLC method; incubation at 4° C. for 10 minutes; read-out: concentration of compounds required to inhibit 50% of the activity of 15-LO (IC50)
T1 construct: rabbit reticulocyte 15-LO; from tissue; host or cells: rabbit reticulocytes
T1 sequence (P12530 1-663): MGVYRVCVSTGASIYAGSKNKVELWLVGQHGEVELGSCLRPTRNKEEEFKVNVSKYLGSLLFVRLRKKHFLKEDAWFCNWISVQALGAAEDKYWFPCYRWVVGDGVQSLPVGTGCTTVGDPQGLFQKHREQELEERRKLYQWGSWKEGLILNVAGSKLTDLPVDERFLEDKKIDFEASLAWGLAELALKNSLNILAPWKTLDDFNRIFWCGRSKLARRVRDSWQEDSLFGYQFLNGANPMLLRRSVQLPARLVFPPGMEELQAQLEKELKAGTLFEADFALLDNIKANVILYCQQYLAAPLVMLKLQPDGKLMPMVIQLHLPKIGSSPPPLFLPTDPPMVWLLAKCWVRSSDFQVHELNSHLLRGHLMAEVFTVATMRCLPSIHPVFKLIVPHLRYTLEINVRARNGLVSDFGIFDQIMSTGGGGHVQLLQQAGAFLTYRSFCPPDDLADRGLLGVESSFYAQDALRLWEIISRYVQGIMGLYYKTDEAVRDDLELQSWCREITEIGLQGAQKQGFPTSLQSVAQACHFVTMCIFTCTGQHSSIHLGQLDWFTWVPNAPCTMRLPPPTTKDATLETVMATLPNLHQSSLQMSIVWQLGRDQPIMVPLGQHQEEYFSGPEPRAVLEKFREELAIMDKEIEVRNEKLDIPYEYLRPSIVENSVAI
Description: The compounds described above are effective inhibitors of 15-LO when evaluated in standard assays routinely utilized to measure 15-LO activity. Specifically, representative compounds were evaluated by the methods described by Auerbach, et al., Analytical Biochemistry, 1992; 201:375-380.Two in vitro assays were utilized, both utilizing rabbit reticulocyte 15-LO, and linoleic acid as substrate, to enzymatically produce a peroxide oxidation product known as 13(S)-HPODE. N-Benzoyl leucomethylene blue was utilized as a calorimetric reagent for detection and quantification of the peroxide formation. Also, HPLC was utilized to quantify the oxidation following incubation at 4° C. for 10 minutes.
The 15-LO inhibitory activity of representative compounds is presented in Table I. The data column gives the concentration of compounds required to inhibit 50% of the activity of 15-LO (IC50) when measured by the HPLC method of Auerbach, et al. [drawing 10] Wherein W, X, Y and Z are C--H and R1 is hydrogen.

Row | IC50 [nM] | SMILES
1 | 96 | c1csc(-c2csc(-c3nc4ccccc4[nH]3)n2)c1 [Example 7]
2 | 620 | Clc1ccc(-c2csc(-c3nc4ccccc4[nH]3)n2)cc1 [Example 2]
3 | 330 | Cc1ccccc1-c1csc(-c2nc3ccccc3[nH]2)n1 [Example 19, 2-(4-o-Tolyl-thiazol-2-yl)-1H-benzoimidazole]
4 | 460 | Brc1ccc(-c2csc(-c3nc4ccccc4[nH]3)n2)cc1 [Example 21, 2-[4-(4-Bromo-phenyl)-thiazol-2-yl]-1H-benzoimidazole]
5 | 200 | Clc1cccc(-c2csc(-c3nc4ccccc4[nH]3)n2)c1 [Example 20, 2-[4-(3-Chloro-phenyl)-thiazol-2-yl]-1H-benzoimidazole]
6 | > 10000 | COc1cccc(OC)c1-c1csc(-c2nc3ccccc3[nH]2)n1 [Example 16, 2-[4-(2,6-Dimethoxy-phenyl)-thiazol-2-yl]-1H-benzoimidazole]
7 | 125 | COc1ccccc1-c1csc(-c2nc3ccccc3[nH]2)n1 [Example 9, 2-[4-(2-Methoxy-phenyl)-thiazol-2-yl]-1H-benzoimidazole]
8 | > 10000 | O=C1c2ccccc2C(=O)N1Cc1csc(-c2nc3ccccc3[nH]2)n1 [Example 25, 2-[2-(1H-Benzoimidazole-2yl)-thiazol-4-ylmethyl]-isoindole-1,3-dione]
9 | > 10000 | Oc1nc(-c2nc3ccccc3[nH]2)sc1-c1ccccc1 [Example 36, 2-(1H-Benzoimidazol-2-yl)-5-phenyl-thiazol-4-ol]
10 | 360 | c1ccc(-c2csc(-c3nc4ccccc4[nH]3)n2)nc1 [Example 1]
11 | 500 | COc1cccc(-c2csc(-c3nc4ccccc4[nH]3)n2)c1 [Example 8, 2-[4-(3-Methoxy-phenyl)-thiazol-2-yl]-1H-benzoimidazole]
12 | 115 | c1ccc(-c2csc(-c3nc4ccccc4[nH]3)n2)cc1 [Example 6, 2-(4-Phenyl-thiazol-2-yl)-1H-benzoimidazole]
13 | > 2500 | Oc1ccc(-c2csc(-c3nc4ccccc4[nH]3)n2)cc1O [Example 13, 4-[2-(1H-Benzoimidazol-2-yl)-thiazol-4-yl]-benzene-1,2-diol]
14 | 1650 | COc1ccc(-c2csc(-c3nc4ccccc4[nH]3)n2)cc1 [Example 10, 2-[4-(4-Methoxy-phenyl)-thiazol-2-yl]-1H-benzoimidazole]
15 | > 2500 | Oc1ccc(-c2csc(-c3nc4ccccc4[nH]3)n2)cc1 [Example 12, 4-[2-(1H-Benzoimidazol-2-yl)-thiazol-4-yl]-phenol]
16 | 773 | Brc1sc(-c2nc3ccccc3[nH]2)nc1-c1ccccc1 [Example 27, 2-(5-Bromo-4-phenyl-thiazol-2-yl)-1H-benzoimidazole]
17 | 189 | Fc1ccc(-c2csc(-c3nc4ccccc4[nH]3)n2)cc1 [Example 3]
18 | > 10000 | c1ccc(-c2ccc(-c3csc(-c4nc5ccccc5[nH]4)n3)cc2)cc1 [Example 11, 2-(4-Biphenyl-4-yl-thiazol-2-yl)-1H-benzoimidazole]
19 | > 10000 | O=C(O)c1sc(-c2nc3ccccc3[nH]2)nc1-c1ccccc1 [Example 29, 2-(lH-Benzoimidazol-2-yl)-4-phenyl-thiazole-5-carboxylic acid]
20 | 207 | Clc1ccc(Cl)c(-c2csc(-c3nc4ccccc4[nH]3)n2)c1 [Example 5]
21 | 390 | COc1ccc(OC)c(-c2csc(-c3nc4ccccc4[nH]3)n2)c1 [Example 15, 2-[4-(2,5-Dimethoxy-phenyl)-thiazol-2-yl]-1H-benzoimidazole]
22 | > 10000 | O=C(NCCCN1CCCCC1)c1csc(-c2nc3ccccc3[nH]2)n1 [Example 32, 2-(1H-Benzoimidazol-2-yl)-thiazole-4-carboxylic acid (3-piperidin-1-yl-propyl)-amide]

same assay, conditions: marked (P), not explained; read-out: IC50 (P)

Row | IC50 [nM] | SMILES
23 | 40 | Oc1ccccc1-c1csc(-c2nc3ccccc3[nH]2)n1 [Example 17, 2-[2-(1H-Benzoimidazol-2-yl)-thiazol-4-yl]-phenol]
24 | 540 | c1ccc2[nH]c(-c3nc(-c4ccncc4)cs3)nc2c1 [Example 37]

same assay, conditions: marked (Q), not explained; read-out: IC50 (Q)

Row | IC50 [nM] | SMILES
25 | 80 | Oc1ccccc1-c1csc(-c2nc3ccccc3[nH]2)n1 [Example 17, 2-[2-(1H-Benzoimidazol-2-yl)-thiazol-4-yl]-phenol]
26 | 810 | c1ccc2[nH]c(-c3nc(-c4ccncc4)cs3)nc2c1 [Example 37]

same assay, conditions: read-out: 15-LO inhibitory activity, % @ 10 μM

Row | inhibition at 10 µM [%] | SMILES
27 | 69 | CCOC(=O)c1sc(-c2nc3ccccc3[nH]2)nc1-c1ccccc1 [Example 28, 2-(1H-Benzoimidazol-2-yl)-4-phenyl-thiazole-5-carboxylic acid ethyl ester]
28 | 25 | CCOC(=O)c1csc(-c2nc3ccccc3[nH]2)n1 [Example 30, 2-(1H-Benzoimidazol-2-yl)-thhiazole-4-carboxylic acid ethyl ester]
29 | 71.6 | Cc1ccc(-c2csc(-c3nc4ccccc4[nH]3)n2)cc1 [Example 18, 2-(4-p-Tolyl-thiazol-2-yl)-1H-benzoimidazole]
30 | 25.1 | O=C(Nc1ccccc1)c1csc(-c2nc3ccccc3[nH]2)n1 [Example 33, 2-(1H-Benzoimidazol-2-yl)-thiazole-4-carboxylic acid phenylamide]
31 | 91.3 | Oc1ccc(Br)cc1-c1csc(-c2nc3ccccc3[nH]2)n1 [Example 14, 2-[2-(1H-Benzoimidazol-2-yl)-thiazol-4-yl]-4-bromo-phenol]
32 | 1.38 | O=C(O)c1csc(-c2nc3ccccc3[nH]2)n1 [Example 31, 2-(1H-Benzoimidazol-2-yl)-thiazole-4-carboxylic acid]
33 | 45 | N#Cc1cccc(-c2csc(-c3nc4ccccc4[nH]3)n2)c1 [Example 35, 3-[2-(1H-Benzoimidazol-2-yl)-thiazol-4-yl]-benzonitrile]
34 | 89.2 | O=C(Nc1sc(-c2nc3ccccc3[nH]2)nc1-c1ccccc1)OCc1ccccc1 [Example 34, [2-(1H-Benzoimidazol-2-yl)-4-phenyl-thiazol-5-yl]-carbamic acid benzyl ester]
